Test results from patent publication US7419980B2, “Fused-aryl and heteroaryl derivatives and methods of their use” (Wyeth, priority 2003, dated 2008).
Where a name gives a salt, the structure may show the parent alone.

Biological target: T1, human hNET (Homo sapiens, UniProt P23975)
T1 construct: expressed in transfected cells; host or cells: MDCK-Net6 (MDCK cells stably transfected with hNET)
Assay: Norepinephrine (NE) uptake assay in MDCK-Net6 cells
Format: cell-based
Conditions: 1 μM test compound; [3H]NE uptake, MDCK-Net6 cells; read-out: % Inhibition @ 1 μM (hNET)
Procedure: MDCK-Net6 cells, stably transfected with human hNET (Pacholczyk, T., R. D. Blakely, and S. G. Amara, Nature, 1991, 350(6316): p. 350-4) were cultured in growth medium containing high glucose DMEM (Gibco, Cat. No. 11995), 10% FBS (dialyzed, heat-inactivated, US Bio-Technologies, Lot FBD1129HI) and 500 μg/ml G418 (Gibco, Cat. No. 10131). Cells were plated at 300,000/T75 flask and cells were split twice weekly. The JAR cell line (human placental choriocarcinoma) was purchased from ATCC (Cat. No. HTB-144). The cells were cultured in growth medium containing RPMI 1640 (Gibco, Cat. No. 72400), 10% FBS (Irvine, Cat. No. 3000), 1% sodium pyruvate (Gibco, Cat. No. 1136) and 0.25% glucose. Cells were plated at 250,000 cells/T75 flask and split twice weekly. For all assays, cells were plated in Wallac 96-well sterile plates (PerkinElmer, Cat. No. 3983498).
On day 1, cells were plated at 3,000 cells/well in growth medium and maintained in a cell incubator (37° C., 5% CO2). On day 2, growth medium was replaced with 200 μl of assay buffer (25 mM HEPES; 120 mM NaCl; 5 mM KCl; 2.5 mM CaCl2; 1.2 mM MgSO4; 2 mg/ml glucose (pH 7.4, 37° C.)) containing 0.2 mg/ml ascorbic acid and 10 μM pargyline. Plates containing cells with 200 μl of assay buffer were equilibrated for 10 minutes at 37° C. prior to addition of compounds. A stock solution of desipramine was prepared in DMSO (10 mM) and delivered to triplicate wells containing cells for a final tert concentration of 1 μM. Data from these wells were used to define non-specific NE uptake (minimum NE uptake). Test compounds were prepared in DMSO (10 mM) and diluted in assay buffer according to tert range (1 to 10,000 nM). Twenty-five microliters of assay buffer (maximum NE uptake) or tert compound were added directly to triplicate wells containing cells in 200 μl of assay buffer. The cells in assay buffer with tert compounds were incubated for 20 minutes at 37° C. To initiate the NE uptake, [^3H]NE diluted in assay buffer (120 nM final assay concentration) was delivered in 25 μl aliquots to each well and the plates were incubated for 5 minutes (37° C.). The reaction was terminated by decanting the supernatant from the plate. The plates containing cells were washed twice with 200 μl assay buffer (37° C.) to remove free radioligand. The plates were then inverted, left to dry for 2 minutes, then reinverted and air-dried for an additional 10 minutes. The cells were lysed in 25 μl of 0.25 N NaOH solution (4° C.), placed on a shake table and vigorously shaken for 5 minutes. After cell lysis, 75 μl of scintillation cocktail was added to each well and the plates were sealed with film tape. The plates were returned to the shake table and vigorously shaken for a minimum of 10 minutes to ensure adequate partitioning of organic and aqueous solutions. The plates were counted in a Wallac Microbeta counter (PerkinElmer) to collect the raw cpm data.
For each experiment, a data stream of cpm values collected from the Wallac Microbeta counter was downloaded to a Microsoft Excel statistical application program. Calculations of EC50 values were made using the transformed-both-sides logistic dose response program written by Wyeth Biometrics Department. The statistical program uses mean cpm values from wells representing maximum binding or uptake (assay buffer) and mean cpm values from wells representing minimum binding or uptake ((1 μM desipramine (hNET) or 1 μM paroxetine (hSERT)). Estimation of the EC50 value was completed on a log scale and the line was fit between the maximum and minimum binding or uptake values. All graphic data representation was generated by normalizing each data point to a mean percent based on the maximum and minimum binding or uptake values. The EC50 values reported from multiple experiments were calculated by pooling the raw data from each experiment and analyzing the pooled data as one experiment.

T1 sequence (P23975 whole entry): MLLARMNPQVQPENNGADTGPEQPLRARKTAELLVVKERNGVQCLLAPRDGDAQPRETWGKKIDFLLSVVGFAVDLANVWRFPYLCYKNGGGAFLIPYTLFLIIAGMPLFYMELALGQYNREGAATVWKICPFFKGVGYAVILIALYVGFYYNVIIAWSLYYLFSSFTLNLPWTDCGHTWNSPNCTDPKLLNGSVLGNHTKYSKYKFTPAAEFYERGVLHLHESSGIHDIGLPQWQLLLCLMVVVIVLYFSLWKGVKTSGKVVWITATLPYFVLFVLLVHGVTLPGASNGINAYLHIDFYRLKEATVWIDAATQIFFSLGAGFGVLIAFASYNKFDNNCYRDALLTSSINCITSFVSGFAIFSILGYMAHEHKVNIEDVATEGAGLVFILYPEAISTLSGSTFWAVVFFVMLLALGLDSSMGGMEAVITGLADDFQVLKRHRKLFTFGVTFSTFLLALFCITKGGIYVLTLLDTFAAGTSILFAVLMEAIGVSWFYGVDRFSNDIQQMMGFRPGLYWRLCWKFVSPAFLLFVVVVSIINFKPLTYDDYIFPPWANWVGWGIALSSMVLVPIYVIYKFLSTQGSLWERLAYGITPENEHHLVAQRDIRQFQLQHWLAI

In order of rising inhibition at 1 µM:
1. OC1(C(CN2CCOCC2)c2ccc3ccccc3c2)CCC1 (centres unmarked) [Example 109, 1-[2-morpholin-4-yl-1-(2-naphthyl)ethyl]cyclobutanol Hydrochloride]  0%
2. OC1(C(CN2CCOCC2)c2ccc3ccccc3c2)CCCCC1 (centres unmarked) [Example 106, 1-[2-morpholin-4-yl-1-(2-naphthyl)ethyl]cyclohexanol Hydrochloride]  2%
3. CN1CCC(O)(C(CN2CCOCC2)c2ccc3ccccc3c2)CC1 (centres unmarked) [Example 102, 1-methyl-4-[2-morpholin-4-yl-1-(2-naphthyl)ethyl]piperidin-4-ol Hydrochloride]  3%
4. CN1CCN(CC(c2cccc3ccccc23)C2(O)CCC(C(C)(C)C)CC2)CC1 (centres unmarked) [Example 100, 4-tert-butyl-1-[2-(4-methylpiperazin-1-yl)-1-(1-naphthyl)ethyl]cyclohexanol Dihydrochloride]  4%
5. OC1(C(CN2CCNCC2)c2cccnc2)CCCCC1 (centres unmarked) [Example 337, 1-(2-piperazin-1-yl-1-pyridin-3-ylethyl)cyclohexanol Trihydrochloride]  4.8%
6. CC1CCC(O)(C(CN2CCNCC2)c2cccc3ccccc23)CC1 (centres unmarked) [Example 97, 4-methyl-1-[1-(1-naphthyl)-2-piperazin-1-ylethyl]cyclohexanol Dihydrochloride]  5%
7. CN1CCN(CC(c2cccc3ccccc23)C2(O)CCCCCCC2)CC1 (centres unmarked) [Example 270, 1-[2-(4-methylpiperazin-1-yl-1-(1-naphthyl)ethyl]cyclooctanol Dihydrochloride]  13%
8. CCC(O)(CC)C(CN1CCN(C)CC1)c1cccc2ccccc12 (centres unmarked) [Example 89, 3-ethyl-1-(4-methylpiperazin-1-yl)-2-(1-naphthyl)pentan-3-ol Dihydrochloride]  15%
9. OC1(C(CN2CCNCC2)c2cnc3ccccc3c2)CCCCC1 (centres unmarked) [Example 262, 1-(2-piperazin-1-yl-1-quinolin-3-ylethyl)cyclohexanol Dihydrochloride]  19%
10. OC1(C(CN2CCNCC2)c2c[nH]c3ccccc23)CCCCC1 (centres unmarked) [Example 155, 1-[1-(1H-indol-3-yl)-2-piperazin-1-ylethyl]cyclohexanol Dihydrochloride]  21%
11. CC(C)(C)C1CCC(O)(C(CN2CCNCC2)c2cccc3ccccc23)CC1 (centres unmarked) [Example 76, 4-tert-butyl-1-[1-(1-naphthyl)-2-piperazin-1-ylethyl]cyclohexanol Dihydrochloride]  22%
12. OC1(C(CN2CCNCC2)c2cccc3ccccc23)CCC1 (centres unmarked) [Example 68, 1-[1-(1-naphthyl)-2-piperazin-1-ylethyl]cyclobutanol Dihydrochloride]  23%
13. OC1(C(CN2CCNCC2)c2ccc3ccccc3c2)CCCCC1 (centres unmarked) [Example 63, 1-[1-(2-naphthyl)-2-piperazin-1-ylethyl]cyclohexanol Dihydrochloride]  26%
14. CN1CCN(CC(c2cccc3ccccc23)C2(O)CCC2)CC1 (centres unmarked) [Example 69, 1-[2-(4-methylpiperazin-1-yl)-1-(1-naphthyl)ethyl]cyclobutanol Dihydrochloride]  26%
15. OC1(C(CN2CCNCC2)c2cccc3ccccc23)CCCCCC1 (centres unmarked) [Example 271, 1-[1-(1-naphthyl)-2-piperazin-1-ylethyl]cycloheptanol Dihydrochloride]  27%
16. CN1CCN(CC(c2ccc3ccccc3c2)C2(O)CCCCC2)CC1 (centres unmarked) [Example 64, 1-[2-(4-methylpiperazin-1-yl)-1-(2-naphthyl)ethyl]cyclohexanol Dihydrochloride]  28%
17. Cn1cc(C(CN2CCNCC2)C2(O)CCCCC2)c2ccccc21 (centres unmarked) [Example 154, 1-[1-(1-methyl-1H-indol-3-yl)-2-piperazin-1-ylethyl]cyclohexanol Dihydrochloride]  32%
18. CN1CCC(O)(C(CN2CCNCC2)c2ccc3ccccc3c2)CC1 (centres unmarked) [Example 59, 1-methyl-4-[1-(2-naphthyl)-2-piperazin-1-ylethyl]piperidin-4-ol Dihydrochloride]  33%
19. CCC(O)(CC)C(CN1CCNCC1)c1cccc2ccccc12 (centres unmarked) [Example 53, 3-ethyl-2-(1-naphthyl)-1-piperazin-1-ylpentan-3-ol Dihydrochloride]  34%
20. CN1CCN(CC(c2cccc3ccccc23)C2(O)CCCC2)CC1 (centres unmarked) [Example 56, 1-[2-(4-methylpiperazin-1-yl)-1-(1-naphthyl)ethyl]cyclopentanol Dihydrochloride]  36%
21. OC1(C(CN2CCNCC2)c2cccc3ccccc23)CCCCCCC1 (centres unmarked) [Example 269, 1-[1-(1-naphthyl)-2-piperazin-1-ylethyl]cyclooctanol Dihydrochloride]  41%
22. OC1(C(CN2CCNCC2)c2cccc3ccccc23)CCCC1 (centres unmarked) [Example 45, 1-[1-(1-naphthyl)-2-piperazin-1-ylethyl]cyclopentanol Dihydrochloride]  44%
23. CN1CCN(CC(c2cccc3ccccc23)C2(O)CCCCCC2)CC1 (centres unmarked) [Example 272, 1-[2-(4-methylpiperazin-1-yl)-1-(1-naphthyl)ethyl]cycloheptanol Dihydrochloride]  44%
24. OC1(C(CN2CCNCC2)c2ccc(Cl)s2)CCCCC1 (centres unmarked) [Example 142, 1-[1-(5-chlorothien-2-yl)-2-piperazin-1-ylethyl]cyclohexanol Dihydrochloride]  51%
25. OC1(C(CN2CCNCC2)c2cc3ccccc3s2)CCCCC1 (centres unmarked) [Example 261, 1-[1-(1-benzothien-2-yl)-2-piperazin-1-ylethyl]cyclohexanoldihydrochloride]  60%
26. OC1(C(CN2CCNCC2)c2csc3ccc(Cl)cc23)CCCCC1 (centres unmarked) [Example 260, 1-[1-(5-chloro-1-benzothien-3-yl)-2-piperazin-1-ylethyl]cyclohexanol Dihydrochloride]  75%
27. OC1(C(CN2CCNCC2)c2cccc3ccccc23)CCCCC1 (centres unmarked) [Example 21, 1-[1-(1-naphthyl)-2-piperazin-1-ylethyl]cyclohexanol Dihydrochloride]  86%

Same assay, conditions: MDCK-Net6, read-out: % Inhibition @ 1 μM (hNET)

In order of rising inhibition at 1 µM:
1. CN1CCN(C[C@H](c2csc(Cl)c2)C2(O)CCCCC2)CC1 [Example 259, 1-[(1S)-1-(5-chlorothien-3-yl)-2-(4-methylpiperazin-1-yl)ethyl]cyclohexanol Dihydrochloride]  20%
2. OC1(C(CN2CCNCC2)c2csc3ccccc23)CCCCC1 (centres unmarked) [Example 146, 1-[1-(1-benzothien-3-yl)-2-piperazin-1-ylethyl]cyclohexanol Dihydrochloride]  82%
3. CN1CCN(C[C@@H](c2csc(Cl)c2)C2(O)CCCCC2)CC1 [Example 258, 1-[(1R)-1-(5-chlorothien-3-yl)-2-(4-methylpiperazin-1-ylethyl]cyclohexanol Dihydrochloride]  91%
4. OC1(C(CN2CCNCC2)c2cc(Cl)sc2Cl)CCCCC1 (centres unmarked) [Example 141, 1-[1-(2,5-dichlorothien-3-yl)-2-piperazine-1-ylethyl]cyclohexanol Dihydrochloride]  94%

Same assay, conditions: [3H]NE uptake, MDCK-Net6 cells

In order of falling EC50:
1. OC1(C(CN2CCNCC2)c2cc(Cl)sc2Cl)CCCCC1 (centres unmarked) [Example 141, 1-[1-(2,5-dichlorothien-3-yl)-2-piperazine-1-ylethyl]cyclohexanol Dihydrochloride]  0.24 µM
2. OC1(C(CN2CCNCC2)c2csc3ccccc23)CCCCC1 (centres unmarked) [Example 146, 1-[1-(1-benzothien-3-yl)-2-piperazin-1-ylethyl]cyclohexanol Dihydrochloride]  0.12 µM
3. OC1(C(CN2CCNCC2)c2cccc3ccccc23)CCCCC1 (centres unmarked) [Example 21, 1-[1-(1-naphthyl)-2-piperazin-1-ylethyl]cyclohexanol Dihydrochloride]  0.057 µM
4. OC1(C(CN2CCNCC2)c2cccc(Cl)c2)CCCCC1 (centres unmarked) [Example 1, 1-[1-(3-chlorophenyl)-2-piperazin-1-ylethyl]cyclohexanol Dihydrochloride]  0.018 µM
